# In patent US10011813B2, “Methane oxidation methods and compositions” (California Institute of Technology, priority 2015, dated 2018):
# Several values for one entry are separate records, joined by “and”; a condition that tells them apart may be missing. Identical values can stand only once. Marks after values point to notes of the source that are not given here.
# Experiments:
# [1] = test system: methane seep sediment (ANME archaea); experiment: AOM rate measurement via 13C-methane (newly formed DIC) in methane seep sediment incubations; assay type: cell-based, ANME-2a and ANME-2c
# Text: General description of methane oxidation measurements via ^13C-methane. Methane oxidation was quantified by determining the production of inorganic carbon (“CO2”). Accurate quantification of the concentration of inorganic carbon formed from methane oxidation is challenging due to 4 main reasons:
# A defined amount of added DIC in artificial, buffered seawater was used with a low calcium concentration to prevent carbonate precipitation (see medium composition). As ^13CH4 was the only ^13C-enriched carbon source added, the newly formed ^13C-DIC must be derived from methane. For low methane oxidation rates (less than ca. 5% relative to sulfate as the oxidant or electron acceptor), however, enzyme-catalyzed isotope exchange between methane and DIC, needs to be taken into account, because it contributes to ^13C enrichment of the DIC without net methane oxidation, resulting in an overestimation of net methane oxidation. […] Details of both methods, the ^13CH4 experiments and the standard addition are described herein.
# Incubation conditions for AOM rate measurement. Each incubation vial was set up with 1.0 cm^3 wet sediment (wet sediment=volume of sediment after allowing the sediment slurry settle for 48 h) in total slurry volume of […] as follows: Sterile serum vials were closed with butyl rubber stoppers (volume=12.9 ml after closing) and flushed with methane. 1.0 mL ^13CH4 (99% ^13C, Cambridge Isotope Laboratories, containing 0.05 vol % ^13CO2 as an impurity) was introduced anaerobically. 2.0 mL of artificial, anaerobic seawater containing 2.5× the target concentration of the corresponding electron acceptor was injected into the serum vial cooled on ice. For AQDS and 1,5-AQDS, this was a suspension corresponding to 25 mM (see TABLE 3).
# The 1 L pyrex bottle with the sediment in the sulfate-free medium (1 part wet sediment in 3 parts of slurry volume) was vigorously shaken each time and 3.0 mL of slurry immediately removed and injected into the individual serum bottles. Each stoppered serum vial was supplemented with unlabeled methane (0.250 MPa overpressure: pressure gauge SSI Technologies, Inc., Media Gauge™) shaken and stored inverted at 4° C. (final headspace: 0.35 MPa methane, with ca. 4% ^13CH4). The exact fractional abundance of ^13C in the methane was quantified via ^1H-NMR spectroscopy for individual incubations.
# AOM rate measurements (quantification of newly formed DIC based on ^13CH4). For ^13C-DIC analysis, 0.25 mL of the medium above the settled sediment in the microcosm was sampled with a disposable needle and syringe at each time point (same intervals for all experiments) and centrifuged (16000 rcf, 5 min). The supernatant was transferred into 0.6 mL eppendorf tubes, flash frozen in N2 (l), and stored at −20° C. until measurement. 150 μL of the thawed supernatant was then added to He-flushed vials containing 100 μL H3PO4 (85%). The resulting CO2 was analyzed for the isotopic enrichment (^13F(tn)) on a GC-IR-MS GasBench II (Thermo Scientific). The amount of DIC newly formed (Δ[DIC](tn), see FIG. 6B) was calculated from the measured ^13F (fractional abundance of ^13C), neglecting isotope effects on AOM according to Equation (1): Δ[DIC](tn)=[DIC](t0)*(^13F(tn)−^13F(t0))/(^13F(CH4)−^13F(tn)) (EQ. 1)
# [2] = test system: methane seep sediment (ANME archaea); experiment: Quantification of sulfide (methylene blue method) in AOM incubations; assay type: cell-based, ANME-2a and ANME-2c; details: Sulfate 28 mM, after 21-day incubation
# Method: Quantification of sulfide. Supernatant was removed via syringe and centrifuged in 0.6 mL Eppendorf tubes (16000 rcf, 30 s). 20 μL of the clear supernatant was removed and added to 400 μL Zn(OAc)2 (500 mM) to preserve the sulfide. Analysis was carried out in triplicate via the methylene blue method described in J. D. Clin (Waters. Limnol. Oceanogr. 14:454 (1969)), using standards of 0.1, 0.25, 0.5, 1, 2, 5, 10 and 25 mM sulfide added to Zn(OAc)2 (500 mM) in the same ratios as for the samples. Quantification was carried out in a plate reader (TECAN Sunrise™) by monitoring the absorbance at 670 nm.
# ANME-SRB consortia = experiment: FISH-nanoSIMS 15N incorporation (anabolic activity) of ANME-SRB consortia; assay type: cell-based, ANME-2c archaea and Desulfobacteraceae
# Method: Incubations for FISH-nanoSIMS and RNA analysis. For AOM incubations with sulfate or AQDS that were used for nanoSIMS (FIG. 7 and FIG. 8A) and RNA analysis (FIG. 6), incubations experiments were set up following the AOM-rate measurements described above (initially containing 1.0 mM ammonium without ^15N label). Methane oxidation rates were tracked in these incubations via the ^13C label. After 11 days, ca. 3.5 mL of supernatant remained in the serum bottles to which 3.0 mL artificial seawater without ammonium containing either 25 mM AQDS, 28 mM sulfate, or no oxidant or electron acceptor was added. Next, 0.1 mL ^15NH4^+ (100 mM) was injected to yield about 2.0 mM ammonium with ca. 75% ^15N. Methane oxidation was monitored. After additional 8 days, the medium of the AQDS incubations was exchanged by 5.0 mL new medium containing 25 mM AQDS and 2.0 mM ^15NH4^+. Now the AQDS incubations contained ca. 95% ^15NH4^+ in the ammonium pool. The cultures were incubated for additional 10 days before harvest. Total incubation time with labeled ammonium: 18 days. Average labeling strength: ca. 75% for sulfate and no oxidant or electron acceptor control; ca. 86% for the AQDS incubations.
# For the second independent set of experiments with iron citrate, humic acids and sulfate (FIG. 8B), the medium contained 1.0 mM ammonium with ca. 40% ^15N label throughout the incubation period. These experiments were carried out from identical incubations that were for the AOM rate measurements (highlighted in Table 4). In regards to Table 4, the percentage AOM rates are reported relative to sulfate-coupled AOM (1.50 μmol cm^−3 day^−1). Top: Summary of compounds described in FIG. 1B; Bottom: Oxidants or electron acceptors resulting in an AOM rate less than 0.10 μmol […] day^−1 (<7% rel. to sulfate as oxidant or electron acceptor).
# Sampling for FISH-nanoSIMS and RNA. After an 18-day incubation in the presence of ^15NH4^+, each incubation was shaken to suspend the sediment and 1.0 mL sediment slurry was sampled using a disposable sterile needle and syringe (ca. 0.3 mL wet sediment). […]
# Sample preparation for aggregate embedding, sectioning, FISH, and nanoSIMS. […] Sections of ca. 1 μm thickness were cut and stretched on a water droplet on a polylysine coated slide with teflon wells (Tekdon Inc) and analyzed by fluorescence in situ hybridization (FISH). […]
# FISH conditions and probes. The FISH hybridization on thin sections of resin embedded microbial aggregates followed the recently optimized protocol described in S. E. McGlynn et al. The phylogenetic identity of microorganisms in the thin sections were determined using conventional FISH using oligonucleotide probes fluorescently labeled on both the 5′ and 3′ ends (dual labeled) as outlined herein. […]
# [3] = Quantification of AQDS solubility in the incubation medium; assay type: physicochemical
# Method: Quantification of AQDS solubility in the incubation medium. Different regioisomers of AQDS (1,5-AQDS, 2,6-AQDS and 2,7-AQDS) were separately added to the modified artificial seawater described above, to a targeted final concentration of 25 mM. The suspensions were ultra-sonicated at room temperature to dissolve as much of the AQDS as possible. The tubes were kept at 4° C. or at 22.5° C. overnight. The tubes were centrifuged at 4° C. or 22.5° C. (16000 rcf, 30 min). The supernatant (300 μL) was mixed with 300 μL acetate (10.0 mM) as the internal standard and 100 μL deuterated water (99.9% D, Cambridge Isotope Laboratories) was added. The concentration of AQDS was obtained from integration of the ^1H-NMR spectra by comparison relative to the acetate standard.
compound,measurement,setting,value
"[Na+].[Na+].[O]=[Mo](=[O])([O-])[O-] [molybdate, sodium molybdate]",effect on methane oxidation in sulfate-free incubations containing AQDS,"[1]; 25 mM molybdate, AQDS 10 mM",no inhibitory response
same,effect on rates of sulfate-coupled AOM relative to controls,"[1]; 25 mM molybdate, sulfate 28 mM",decreased by approximately fivefold
O=S(=O)(O)O [Sulfate],Rate relative to AOM with sulfate,"[1]; 28 mM, no MoO4^2−, 100% = 1.50 μmol cm^−3 day^−1",100%
same,Rate relative to AOM with sulfate,"[1]; 28 mM, with 25 mM MoO4^2−",20%
same,DIC formed,"[1]; Sulfate 28 mM, after 21-day incubation",6.44 mM and 7.77 mM and 7.51 mM and 7.29 mM
same,sulfate-coupled AOM rate,[1]; reference rate (100%) of Table 4,1.50 μmol cm^−3 day^−1
same,AOM rate,[1]; sediment characterization,1.5 μmol methane (cm^3 wet sediment)^−1 d^−1
same,"sulfide (sum of HS^− and H2S), final concentration",[2],5.9 mM and 6.5 mM and 7.0 mM and 6.1 mM
same,doubling time of ANME cells based on average 15N-incorporation,ANME-SRB consortia; 18 days with 15NH4+,2.9 months
"O=C1c2cccc(S(=O)(=O)O)c2C(=O)c2cccc(S(=O)(=O)O)c21 [1,5-AQDS, 9,10-anthraquinone-1,5-disulfonate]",Rate relative to AOM with sulfate,"[1]; 10 mM, no MoO4^2−",38%
same,Solubility in the incubation medium,[3]; 4° C.,2.5 mM
O=C([O-])CN(CCN(CC(=O)[O-])CC(=O)[O-])CC(=O)[O-].[Fe+3] [Fe(III)-EDTA],Rate relative to AOM with sulfate,"[1]; 1.6 mM, no MoO4^2−",8%
same,Rate relative to AOM with sulfate,"[1]; 10 mM, no MoO4^2−",≤1.5 ^† %
O=C([O-])CN(CC(=O)[O-])CC(=O)[O-].[Fe+3] [Fe(III)-NTA],Rate relative to AOM with sulfate,"[1]; 1 mM, no MoO4^2−",2.5%
same,Rate relative to AOM with sulfate,"[1]; 10 mM, no MoO4^2−",≤1.5 ^† %
1-Hydroxynaphthoquinone,Rate relative to AOM with sulfate,"[1]; 10 mM, 1 mM, no MoO4^2−",≤1.5 ^† %
O=C1C(=C2Nc3c(cc(S(=O)(=O)O)cc3S(=O)(=O)O)C2=O)Nc2c1cc(S(=O)(=O)O)cc2S(=O)(=O)O [Indigo tetrasulfonate],Rate relative to AOM with sulfate,"[1]; 10 mM, 1 mM, no MoO4^2−",≤1.5 ^† %
Nc1ccc2nc3ccc(N)cc3[n+](-c3ccccc3)c2c1 [Phenosafranine],Rate relative to AOM with sulfate,"[1]; 10 mM, 1.6 mM, no MoO4^2−",≤1.5 ^† %
CN(C)c1ccc2nc3ccc(=[N+](C)C)cc-3sc2c1 [Methylene blue],Rate relative to AOM with sulfate,"[1]; 1 mM, no MoO4^2−",≤1.5 ^† %
O=c1ccc2[n+]([O-])c3ccc(O)cc3oc-2c1 [Resazurin],Rate relative to AOM with sulfate,"[1]; 10 mM, no MoO4^2−",≤1.5 ^† %
O=C([O-])CC(O)(CC(=O)[O-])C(=O)[O-].[Fe+3] [Fe(III)-citrate],Rate relative to AOM with sulfate,"[1]; 2 mM, with 25 mM MoO4^2−",7%
same,Rate relative to AOM with sulfate,"[1]; 5 mM, with 25 mM MoO4^2−",37%
same,Rate relative to AOM with sulfate,"[1]; 10 mM, no MoO4^2−",53%
same,Rate relative to AOM with sulfate,"[1]; 10 mM, with 25 mM MoO4^2−",46%
same,Rate relative to AOM with sulfate,"[1]; 25 mM, with 25 mM MoO4^2−",2.5%
same,"AOM consortia anabolically active (>10% archaeal activity relative to sulfate treatments, or >0.8 at % 15N)","ANME-SRB consortia; second set of experiments, ca. 40% 15N",14 out of 31
COS(=O)(=O)[O-].C[n+]1c2ccccc2nc2ccccc21 [Phenazine methosulfate],Rate relative to AOM with sulfate,"[1]; 1 mM, no MoO4^2−",≤1.5 ^† %
Cc1cc2nc3cc(C)c(N)cc3[n+](-c3ccccc3)c2cc1N.[Cl-] [Safranine T],Rate relative to AOM with sulfate,"[1]; 10 mM, 1.6 mM, no MoO4^2−",≤1.5 ^† %
"O=C1c2ccc(S(=O)(=O)O)cc2C(=O)c2cc(S(=O)(=O)O)ccc21 [2,7-AQDS, 9,10-anthraquinone-2,7-disulfonate]",Rate relative to AOM with sulfate,"[1]; 10 mM, no MoO4^2−",97%
same,Solubility in the incubation medium,[3]; 4° C.,>25 mM
same,Solubility in the incubation medium,[3]; 22.5° C.,>25 mM
